Legend:
Type in all cases: cell-based
[1] = tested on: E. coli (ATCC #25922); experiment: Zone-of-inhibition, ranked, bismuth thiol coated SIS discs (Example 1); conditions: 24 hours
Procedure: (§1) Seven bismuth thiol compounds (50 mg each) were obtained from Microbion, Inc. (Bozeman, Mont.). These compounds included 2 preparations of bismuth-1,2-ethanedithiol (BisEDT) (Molar ratio 1:1.5), 2 preparations of bismuth-2,3-dimercaptopropanol (BisBAL) (1:1 and 1:1.5), bismuth dithioethylhritol (BisERY) (1:1.5), bismuth-3,4-dimercatotoluene (BisTOL) (1:1.5) and bismuth butanedithiol (BisBDT) (1:1.5). Purified small intestinal submucosa (SIS) (Cook Biotech Incorporated, West Lafayette, Ind.) was made into wetted 4-layer constructs which were laminated together by lyophilization and subsequently cut into 15 mm discs (˜1.76 cm^2) using a disc punch. Bismuth thiols were resuspended in dimethyl sulfoxide (DMSO) and diluted to appropriate concentrations for coating. Discs were coated with the bismuth thiol solutions at three final concentrations using 17.6 μl of the appropriate solution per disc for a final concentration of 1, 10, or 100 μg/cm^2. The discs were subsequently placed in a lyophilizer overnight to remove the DMSO solvent. Control discs were prepared using 17.6 μl of DMSO without a bismuth thiol preparation. 3 bacteria were used for this experiment: S. aureus (ATCC #25983), P. aeruginosa (ATCC #27853), and E. coli (ATCC #25922). Bacteria was grown in Tryptic Soy Broth for 16-24 hours before placing a lawn on Tryptic Soy Agar in 100 mm Petri dishes.
(§2) Sixty six samples were tested in total (7 bismuth thiol preparations 3 doses=21+1 control=22×3 bacteria=66). A lawn of one of the three bacteria investigated was swabbed onto the Tryptic Soy Agar. The bismuth thiol coated disc was placed approximately in the center of the plate and rehydrated with ˜50 μl of sterile saline. Plates were incubated inverted for 24 hours at which time pictures were taken with a digital camera. Zones-of-inhibition were categorized by the approximate distance of bacterial growth inhibition from the disc edge. The effectiveness was ranked as follows: (−) for no growth retardation, (+) for growth retardation at <1 mm from disc edge, (++) for growth retardation 1-3 mm from disc edge, and (+++) for growth retardation greater than 3 mm from disc edge. Results are shown below in Tables 2-4.

[2] = tested on: S. aureus (ATCC #25983); experiment: as above; conditions: 24 hours
Procedure: as §1, §2

[3] = tested on: P. aeruginosa (ATCC #27853); experiment: as above; conditions: 24 hours
Procedure: as §1, §2

[4] = tested on: S. aureus (ATCC #25983); experiment: Zone-of-inhibition after various rehydration times of coated SIS discs (Example 3)
Procedure: BisEDT (Molar ratio 1:1.5) and BisBAL (1:1.5) (50 mg each) were obtained from Microbion, Inc. Small intestinal submucosa (SIS) was obtained and processed into 4-layer lyophilized sheets as described in Example 1. The sheets were subsequently cut into 15 mm discs (˜1.76 cm^2) using a disc punch. Bismuth thiols were resuspended in dimethyl sulfoxide (DMSO) and diluted to appropriate concentrations for coating. Discs were coated with the bismuth thiol solutions at a final concentration of 0.35 μg/μl using 50 μl of the solution per disc for a final concentration of 10 μg/cm^2. The discs were subsequently placed in a lyophilizer overnight to remove the DMSO solvent. S. aureus (ATCC #25983) was used as the bacteria for this experiment. Bacteria was grown in Tryptic Soy Broth for 16-24 hours before placing a lawn on Tryptic Soy Agar in 100 mm Petri dishes.
Thirty six samples were tested in total (2 BT*n=3→6*6 rehydration times→36). A lawn of S. aureus was swabbed onto the Tryptic Soy Agar. For the 0 rehydration time point, the bismuth thiol coated disc was placed approximately in the center of the plate and rehydrated with ˜50 μl of sterile saline. Other rehydration times were varied at 5, 10, 20, 30, or 60 minutes. For this, the samples were placed in sterile saline and a timer set for each time. At the appropriate time, samples were removed from the saline and placed approximately in the center of the plate. Plates were incubated inverted for 24 hours at which time pictures were taken with a digital camera. Zones-of-inhibition were compared visually between groups.

[5] = tested on: E. coli (ATCC #25922); experiment: Zone-of-inhibition measured by image analysis, coated SIS discs (Example 2); conditions: 10 μg/cm^2 on SIS disc, 24 hours, n=3
Procedure: (§3) BisEDT (Molar ratio 1:1.5), BisBAL (1:1.5), and BisERY (1:1.5) (50 mg each) were obtained from Microbion, Inc. Small intestinal submucosa (SIS) was obtained and processed into 4-layer lyophilized sheets as described in Example 1. The sheets were subsequently cut into 15 mm discs (˜1.76 cm^2) using a disc punch. Bismuth thiols were resuspended in dimethyl sulfoxide (DMSO) and diluted to 0.35 μg/μl for coating. Discs were coated with the bismuth thiol solutions 50 μl of the appropriate solution per disc for a final concentration 10 μg/cm^2 (0.35 μg/μl*50 μl=17.5 μg/1.76 cm^2=10 μg/cm^2). The discs were subsequently placed in a lyophilizer overnight to remove the DMSO solvent. Control discs were prepared using 50 μl of DMSO without a bismuth thiol preparation. 3 bacteria were used for this experiment: S. aureus (ATCC #25983), P. aeruginosa (ATCC #27853), and E. coli (ATCC #25922). Bacteria was grown in Tryptic Soy Broth for 16-24 hours before placing a lawn on Tryptic Soy Agar in 100 mm Petri dishes.
(§4) Thirty samples were tested in total (3 bismuth thiol preparations @ n=3→9+1 control=10×3 bacteria=30). A lawn of one of the three bacteria investigated was swabbed onto the Tryptic Soy Agar. The bismuth thiol coated disc was rehydrated for ˜5 minutes in sterile saline and placed approximately in the center of the plate. Plates were incubated inverted for 24 hours at which time pictures were taken with a digital camera. Zones-of-inhibition were measured using image analysis software (Spot RT) by determining the distance of bacterial growth inhibition from the disc edge.

[6] = tested on: S. aureus (ATCC #25983); experiment: as above; conditions: 10 μg/cm^2 on SIS disc, 24 hours, n=3
Procedure: as §3, §4

[7] = tested on: P. aeruginosa (ATCC #27853); experiment: as above; conditions: 10 μg/cm^2 on SIS disc, 24 hours, n=3
Procedure: as §3, §4

| Compound | Zone-of-inhibition rank (E. coli) ([1]; 1 μg/cm^2 on SIS disc) | Zone-of-inhibition rank (E. coli) ([1]; 10 μg/cm^2 on SIS disc) | Zone-of-inhibition rank (E. coli) ([1]; 100 μg/cm^2 on SIS disc) | Zone-of-inhibition rank (S. aureus) ([2]; 1 μg/cm^2 on SIS disc) | Zone-of-inhibition rank (S. aureus) ([2]; 10 μg/cm^2 on SIS disc) | Zone-of-inhibition rank (S. aureus) ([2]; 100 μg/cm^2 on SIS disc) | Zone-of-inhibition rank (P. aeruginosa) ([3]; 1 μg/cm^2 on SIS disc) | Zone-of-inhibition rank (P. aeruginosa) ([3]; 10 μg/cm^2 on SIS disc) | Zone-of-inhibition rank (P. aeruginosa) ([3]; 100 μg/cm^2 on SIS disc) | Effect of rehydration time on zone-of-inhibition, visual comparison ([4]; 10 μg/cm^2, rehydration 0-60 minutes in sterile saline) | Zone-of-inhibition, visual ([4]; 10 μg/cm^2 on SIS disc, rehydration 0, 5, 10, 20, 30 or 60 minutes) | Zone-of-inhibition, distance of bacterial growth inhibition from the disc edge [5] | Zone-of-inhibition, distance of bacterial growth inhibition from the disc edge [6] | Zone-of-inhibition, distance of bacterial growth inhibition from the disc edge [7] |
| --- | --- | --- | --- | --- | --- | --- | --- | --- | --- | --- | --- | --- | --- | --- |
| OCC(S)CS.[Bi] (stereo not shown) [Bis BAL1, bismuth-2,3-dimercaptopropanol] | − | ++ ((++) for growth retardation 1-3 mm from disc edge) | +++ ((+++) for growth retardation greater than 3 mm from disc edge) | + ((+) for growth retardation at <1 mm from disc edge) | +++ ((+++) for growth retardation greater than 3 mm from disc edge) | +++ ((+++) for growth retardation greater than 3 mm from disc edge) | − | + ((+) for growth retardation at <1 mm from disc edge) | +++ ((+++) for growth retardation greater than 3 mm from disc edge) |  |  |  |  |  |
| OCC(S)CS.[Bi] (stereo not shown) [Bis BAL2, bismuth-2,3-dimercaptopropanol] | − | ++ ((++) for growth retardation 1-3 mm from disc edge) | +++ ((+++) for growth retardation greater than 3 mm from disc edge) | + ((+) for growth retardation at <1 mm from disc edge) | +++ ((+++) for growth retardation greater than 3 mm from disc edge) |  | − | + ((+) for growth retardation at <1 mm from disc edge) | +++ ((+++) for growth retardation greater than 3 mm from disc edge) |  |  |  |  |  |
| OCC(S)CS.[Bi] (stereo not shown) [BisBAL, bismuth-2,3-dimercaptopropanol] |  |  |  |  |  |  |  |  |  | no visual differences between the rehydration time points | significant effectiveness in creating a zone-of-inhibition | 1.50 | 7.27 | 0.16 |
| bismuth butanedithiol [Bis BDT] | − | ++ ((++) for growth retardation 1-3 mm from disc edge) | ++ ((++) for growth retardation 1-3 mm from disc edge) | − | ++ ((++) for growth retardation 1-3 mm from disc edge) | +++ ((+++) for growth retardation greater than 3 mm from disc edge) | − | + ((+) for growth retardation at <1 mm from disc edge) | ++ ((++) for growth retardation 1-3 mm from disc edge) |  |  |  |  |  |
| bismuth dithioethylhritol [Bis ERY] | − | ++ ((++) for growth retardation 1-3 mm from disc edge) | +++ ((+++) for growth retardation greater than 3 mm from disc edge) | − | ++ ((++) for growth retardation 1-3 mm from disc edge) | +++ ((+++) for growth retardation greater than 3 mm from disc edge) | − | ++ ((++) for growth retardation 1-3 mm from disc edge) | +++ ((+++) for growth retardation greater than 3 mm from disc edge) |  |  |  |  |  |
| bismuth-1,2-ethanedithiol [Bis EDT1] | − | − | + ((+) for growth retardation at <1 mm from disc edge) | + ((+) for growth retardation at <1 mm from disc edge) | ++ ((++) for growth retardation 1-3 mm from disc edge) | +++ ((+++) for growth retardation greater than 3 mm from disc edge) | − | + ((+) for growth retardation at <1 mm from disc edge) | + ((+) for growth retardation at <1 mm from disc edge) |  |  |  |  |  |
| bismuth-1,2-ethanedithiol [Bis EDT2] | − | + ((+) for growth retardation at <1 mm from disc edge) | + ((+) for growth retardation at <1 mm from disc edge) | ++ ((++) for growth retardation 1-3 mm from disc edge) | ++ ((++) for growth retardation 1-3 mm from disc edge) | +++ ((+++) for growth retardation greater than 3 mm from disc edge) | − | − | ++ ((++) for growth retardation 1-3 mm from disc edge) |  |  |  |  |  |
| bismuth-3,4-dimercatotoluene [Bis TOL] | − | − | − | − | + ((+) for growth retardation at <1 mm from disc edge) | + ((+) for growth retardation at <1 mm from disc edge) | − | − | − |  |  |  |  |  |

Source: patent publication US8343536B2, “Biofilm-inhibiting medical products” (Cook Biotech Incorporated, priority 2007, dated 2013)
